pIC50: −log10 of the molar value. Read-outs that look alike come from different tables or passages of the source.
Legend:
[1] = biological target: T1, human TRPV1 (Homo sapiens, UniProt Q8NER1); experiment: Acid Activation Assay (pH 5.0, FLIPR intracellular Ca2+, recombinant HEK293 cells); type: cell-based; conditions: percentage of maximal pH 5.0-induced response remaining; HEK293 hTRPV1; max concentration 37.5 μM
T1 construct: expressed in transfected cells
Method: (ii) Acid Activation Assay
Dulbecco's modified Eagle's medium (DMEM) with 4.5 mg/mL D-glucose, fetal bovine serum, L-glutamine, and 2-morpholinoethanesulfonic acid (MES) were purchased from Sigma-Aldrich Co. (St. Louis, Mo.). […] The FLIPR® Calcium 4 assay kit was purchased from Molecular Devices (Sunnyvale, Calif.).
(§1) Expression plasmids encoding the hTRPV1 cDNA were transfected into HEK293 cells using Lipofectamine®. Forty-eight hours after transfection, the neomycin-resistant cells were selected with growth medium containing 800 μg/mL Geneticin (Life Technologies, formerly Gibco BRL). Surviving individual colonies were isolated and screened for TRPV1 activity. Cells expressing recombinant TRPV1 were maintained at 37° C. in DMEM containing 4 mM L-glutamine, 300 μg/mL G418 (Calbiochem) and 10% fetal bovine serum under a humidified 5% CO2 atmosphere.
The functional activity of compounds at the TRPV1 receptor was determined by measurement of intracellular Ca^2+ levels ([Ca^2+]i) using the Fluorescence Imaging Plate Reader (FLIPR)TETRA®. […] Compound stocks, 10 mM, were prepared in DMSO, and diluted serially across a 384-well plate using a Bravo BenchCel workstation (Agilent Technologies, Santa Clara, Calif.). On the day prior to the experiment, the recombinant HEK293 cells expressing human TRPV1 (hTRPV1) were removed from tissue culture flasks and plated in growth medium into black-walled clear-bottom 384-well Biocoat™ poly-D-lysine assay plates (BD Biosciences, Bedford, Mass.) using a Multidrop® dispenser (ThermoScientific, Waltham, Mass.). […] The plated cells were incubated for 90-120 min in the dark at 25° C. The test compounds dissolved in DMSO were then added to the plates using an Agilent Bravo workstation (Agilent Technologies Inc., Santa Clara, Calif.). Three minutes later, a pH 5.0 solution was added to each well. Reagents were delivered at a rate of 40 μL/sec, and the final assay volume was 80 μL. Acidic pH solutions were prepared by titration of DPBS/MES with 1 N HCl. The intensity of the fluorescence was captured and digitally transferred to an interfaced PC. The maximum peak measured for the concentration range tested was used to calculate the corresponding peak increase in fluorescence over baseline (relative fluorescence units) which was expressed as the percentage (max % remain) of the maximal pH 5.0-induced response.

[2] = biological target: T1, human TRPV1; experiment: Capsaicin Activation Assay (FLIPR intracellular Ca2+, recombinant HEK293 cells); type: cell-based
Method: (i) Capsaicin Activation Assay
Dulbecco's modified Eagle medium (DMEM) (with 4.5 mg/mL glucose) and fetal bovine serum were obtained from Hyclone Laboratories, Inc. (Logan, Utah). Dulbecco's phosphate-buffered saline (DPBS) (with 1 mg/mL glucose and 3.6 mg/l Na pyruvate, without phenol red), L-glutamine, hygromycin B, and Lipofectamine® were obtained from Life Technologies (Grand Island, N.Y.). G418 sulfate was obtained from Calbiochem-Novabiochem Corp. (San Diego, Calif.). Capsaicin (8-methyl-N-vanillyl-6-nonenamide) was obtained from Sigma-Aldrich, Co. (St. Louis, Mo.). Fluo-4 AM (N-[4-[6-[(acetyloxy)-methoxy]-2,7-difluoro-3-oxo-3H-xanthen-9-yl]-2-[2-[2-[bis[2-[(acetyloxy)methoxy]-2-oxyethyl]amino]-5-methylphenoxy]ethoxy]phenyl]-N-[2-[(acetyloxy)methoxy]-2-oxyethyl]-glycine, (acetyloxy)methyl ester) was purchased from Molecular Probes (Eugene, Oreg.).
as §1
The functional activity of compounds at the TRPV1 receptor was determined by measurement of intracellular Ca^2+ levels ([Ca^2+]i) using the Fluorescence Imaging Plate Reader (FLIPR)TETRA®. All compounds were tested over a 12-point one-third-log concentration range. Compound stocks, 10 mM, were prepared in DMSO, and diluted serially across a 384-well plate using a Bravo BenchCel workstation (Agilent Technologies, Santa Clara, Calif.). A stock concentration of capsaicin (10 mM) was made in DMSO, and diluted in DPBS to a final concentration of 200 nM (4×). On the day prior to the experiment, the recombinant HEK293 cells expressing human TRPV1 (hTRPV1) were removed from tissue culture flasks and plated in growth medium into black-walled clear-bottom 384-well Biocoat™ poly-D-lysine assay plates (BD Biosciences, Bedford, Mass.) using a Multidrop® dispenser (ThermoScientific, Waltham, Mass.). […] The plated cells were incubated for 90-120 minutes in the dark at room temperature and then test compound was added to each well. Three minutes later, 200 nM capsaicin (4×) solution was added to each well in an amount sufficient to provide a final assay volume of 80 μL and capsaicin concentration of 50 nM. Fluorescence readings were made at 1 to 5 second intervals over the course of the experimental run. The peak increase in relative fluorescence units (minus baseline) was calculated, and expressed as a percentage of the 50 nM capsaicin (control) response.

[3] = recombinant HEK293 cells expressing hTRPV1, 50 nM capsaicin, read-out: human TRPV1 capsaicin IC50

T1 sequence (Q8NER1 whole entry): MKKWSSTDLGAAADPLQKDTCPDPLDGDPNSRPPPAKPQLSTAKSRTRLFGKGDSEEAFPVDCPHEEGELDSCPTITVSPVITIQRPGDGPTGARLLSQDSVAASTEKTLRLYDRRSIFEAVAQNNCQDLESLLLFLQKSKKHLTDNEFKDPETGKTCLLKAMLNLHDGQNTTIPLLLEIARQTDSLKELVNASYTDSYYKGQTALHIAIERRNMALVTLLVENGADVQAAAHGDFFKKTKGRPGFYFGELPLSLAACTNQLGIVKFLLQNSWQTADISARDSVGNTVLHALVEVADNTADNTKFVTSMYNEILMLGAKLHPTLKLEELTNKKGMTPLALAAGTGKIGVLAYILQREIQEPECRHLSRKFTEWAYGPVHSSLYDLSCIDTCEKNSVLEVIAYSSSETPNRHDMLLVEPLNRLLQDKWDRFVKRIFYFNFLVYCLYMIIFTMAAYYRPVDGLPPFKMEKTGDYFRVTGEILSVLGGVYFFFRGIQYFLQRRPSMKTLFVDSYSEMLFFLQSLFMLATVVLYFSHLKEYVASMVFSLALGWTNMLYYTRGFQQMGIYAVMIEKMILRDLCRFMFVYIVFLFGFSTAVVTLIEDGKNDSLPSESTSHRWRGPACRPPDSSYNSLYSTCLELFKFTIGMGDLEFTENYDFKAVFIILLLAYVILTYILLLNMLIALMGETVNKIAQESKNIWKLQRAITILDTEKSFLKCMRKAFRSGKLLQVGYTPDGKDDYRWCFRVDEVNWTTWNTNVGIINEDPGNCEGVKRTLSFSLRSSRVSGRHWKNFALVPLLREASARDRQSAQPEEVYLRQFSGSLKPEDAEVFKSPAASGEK

Row | human TRPV1 H+ (max % remain) [1] | pIC50 [2, 3] | pIC50 [2] | Structure (SMILES)
1 | 75% | 7.66 | – | CCC1(CC)C[C@@H](NC(=O)Nc2cccc3c2C[C@H](O)C3)c2ccccc2O1 [Example 49, 1-[(4R)-2,2-diethyl-3,4-dihydro-2H-chromen-4-yl]-3-[(2R)-2-hydroxy-2,3-dihydro-1H-inden-4-yl]urea]
2 | 73% | 6.57 | – | O=C(Nc1cccc2c1C[C@H](O)C2)N[C@@H]1CCOc2cc(F)ccc21 [Example 65, 1-[(4R)-7-fluoro-3,4-dihydro-2H-chromen-4-yl]-3-[(2R)-2-hydroxy-2,3-dihydro-1H-inden-4-yl]urea]
3 | 58% | 5.96 | – | O=C(Nc1cccc2c1C[C@H](O)C2)N[C@H]1CC(CF)(CF)Oc2cc(Cl)ccc21 [Example 97, 1-[(4S)-7-chloro-2,2-bis(fluoromethyl)-3,4-dihydro-2H-chromen-4-yl]-3-[(2R)-2-hydroxy-2,3-dihydro-1H-inden-4-yl]urea]
4 | 85% | 4.47 | – | O=C(Nc1cccc2c1C[C@H](O)C2)N[C@@H]1CC(CF)(CF)Oc2cc(C(F)F)ccc21 [Example 130, 1-[(4R)-7-(difluoromethyl)-2,2-bis(fluoromethyl)-3,4-dihydro-2H-chromen-4-yl]-3-[(2R)-2-hydroxy-2,3-dihydro-1H-inden-4-yl]urea]
5 | 12% | 5.85 | – | O=C(Nc1cccc2c1C[C@@H](O)C2)N[C@@H]1CC(CF)(CF)Oc2ccc(F)cc21 [Example 78, 1-[(4R)-6-fluoro-2,2-bis(fluoromethyl)-3,4-dihydro-2H-chromen-4-yl]-3-[(2S)-2-hydroxy-2,3-dihydro-1H-inden-4-yl]urea]
6 | 62% | 6.59 | – | C[C@]1(C(F)F)C[C@@H](NC(=O)Nc2cccc3c2C[C@H](O)C3)c2ccccc2O1 [Example 127, 1-[(2R,4R)-2-(difluoromethyl)-2-methyl-3,4-dihydro-2H-chromen-4-yl]-3-[(2R)-2-hydroxy-2,3-dihydro-1H-inden-4-yl]urea]
7 | 43% | 7.43 | – | CC1(C)C[C@@H](NC(=O)Nc2cccc3c2C[C@@H](O)C3)c2ccc(F)c(F)c2O1 [Example 38, 1-[(4R)-7,8-difluoro-2,2-dimethyl-3,4-dihydro-2H-chromen-4-yl]-3-[(2S)-2-hydroxy-2,3-dihydro-1H-inden-4-yl]urea]
8 | 18% | 7.92 | – | CC1(C)C[C@@H](NC(=O)Nc2cccc3c2C[C@@H](O)C3)c2cccc(C(F)(F)F)c2O1 [Example 34, 1-[(4R)-2,2-dimethyl-8-(trifluoromethyl)-3,4-dihydro-2H-chromen-4-yl]-3-[(2S)-2-hydroxy-2,3-dihydro-1H-inden-4-yl]urea]
9 | 72% | 6.62 | – | CCC1(CC)C[C@@H](NC(=O)Nc2cccc3c2C[C@H](O)C3)c2ccc(Cl)c(Cl)c2O1 [Example 55, 1-[(4R)-7,8-dichloro-2,2-diethyl-3,4-dihydro-2H-chromen-4-yl]-3-[(2R)-2-hydroxy-2,3-dihydro-1H-inden-4-yl]urea]
10 | 86% | 6.55 | – | C[C@]1(CF)C[C@@H](NC(=O)Nc2cccc3c2C[C@H](O)C3)c2cccc(F)c2O1 [Example 66, 1-[(2R,4R)-8-fluoro-2-(fluoromethyl)-2-methyl-3,4-dihydro-2H-chromen-4-yl]-3-[(2R)-2-hydroxy-2,3-dihydro-1H-inden-4-yl]urea]
11 | 94% | 5.66 | – | O=C(Nc1cccc2c1CC(O)C2)NC1c2ccccc2OCC1Cc1ccccc1 (stereo not shown) [Example 111, 1-(3-benzyl-3,4-dihydro-2H-chromen-4-yl)-3-(2-hydroxy-2,3-dihydro-1H-inden-4-yl)urea]

Continued, compound first:

Row | Structure (SMILES) | human TRPV1 H+ (max % remain) [1] | pIC50 [2, 3] | pIC50 [2]
12 | O=C(Nc1cccc2c1C[C@H](O)C2)N[C@@H]1CCc2cc(OC(F)(F)F)ccc21 [Example 106, 1-[(2R)-2-hydroxy-2,3-dihydro-1H-inden-4-yl]-3-[(1R)-5-(trifluoromethoxy)-2,3-dihydro-1H-inden-1-yl]urea] | 26% | 7.25 | –
13 | CC1(C)C[C@@H](NC(=O)Nc2cccc3c2C[C@H](O)C3)c2ccccc21 [Example 63, 1-[(1R)-3,3-dimethyl-2,3-dihydro-1H-inden-1-yl]-3-[(2R)-2-hydroxy-2,3-dihydro-1H-inden-4-yl]urea] | 86% | 6.85 | –
14 | O=C(Nc1ccc(F)c2c1C[C@H](O)C2)N[C@@H]1CC(CF)(CF)Oc2c(F)cc(F)cc21 [Example 142, 1-[(4R)-6,8-difluoro-2,2-bis(fluoromethyl)-3,4-dihydro-2H-chromen-4-yl]-3-[(2S)-7-fluoro-2-hydroxy-2,3-dihydro-1H-inden-4-yl]urea] | 4% | 5.40 | –
15 | O=C(Nc1ccc(F)c2c1C[C@H](O)C2)N[C@@H]1CC(CF)(CF)Oc2cc(Cl)ccc21 [Example 134, 1-[(4R)-7-chloro-2,2-bis(fluoromethyl)-3,4-dihydro-2H-chromen-4-yl]-3-[(2S)-7-fluoro-2-hydroxy-2,3-dihydro-1H-inden-4-yl]urea] | 3% | – | 6.46
16 | CC1(C)C[C@@H](NC(=O)Nc2cccc3c2C[C@@H](O)C3)c2ccccc2O1 [Example 82, 1-[(4R)-2,2-dimethyl-3,4-dihydro-2H-chromen-4-yl]-3-[(2S)-2-hydroxy-2,3-dihydro-1H-inden-4-yl]urea] | 56% | 6.29 | –
17 | C[C@]1(CF)C[C@@H](NC(=O)Nc2c(F)ccc3c2C[C@@H](O)C3)c2ccc(Cl)cc2O1 [Example 100, 1-[(2R,4R)-7-chloro-2-(fluoromethyl)-2-methyl-3,4-dihydro-2H-chromen-4-yl]-3-[(2S)-5-fluoro-2-hydroxy-2,3-dihydro-1H-inden-4-yl]urea] | 30% | 7.48 | –
18 | O=C(NCC1CCc2cc(C(F)(F)F)ccc2O1)Nc1cccc2c1C[C@H](O)C2 (stereo partly drawn) [Example 26, 1-[(2R)-2-hydroxy-2,3-dihydro-1H-inden-4-yl]-3-{[6-(trifluoromethyl)-3,4-dihydro-2H-chromen-2-yl]methyl}urea] | 66% | 6.11 | –
19 | C[C@@]1(CF)C[C@@H](NC(=O)Nc2cccc3c2C[C@H](O)C3)c2ccc(Cl)cc2O1 [Example 16, 1-[(2S,4R)-7-chloro-2-(fluoromethyl)-2-methyl-3,4-dihydro-2H-chromen-4-yl]-3-[(2R)-2-hydroxy-2,3-dihydro-1H-inden-4-yl]urea] | 57% | 7.43 | –
20 | O=C(Nc1cccc2c1CC(O)C2)NC1CC2(CCCCC2)Oc2ccccc21 (stereo not shown) [Example 123, 1-(3,4-dihydrospiro[chromene-2,1′-cyclohexan]-4-yl)-3-(2-hydroxy-2,3-dihydro-1H-inden-4-yl)urea] | 61% | 6.85 | –
